Measurements published in US9107942B2, “Methods of diagnosing and treating fibrosis” (University of Rochester, priority 2008, dated 2015).
“Also recorded” adds a separate entry of the source.

Legend:
[1] = tested on: YY1 expression; assay: YY1 expression in stimulated WI-38 lung fibroblasts (immunoblot, quantitative PCR); type: cell-based, human; conditions: WI-38 cells; for YY1 transcript levels: quantitative PCR
Protocol: (§1) FIGS. 7A and 7B are immunoblots of human WI-38 cells (FIG. 7A) and mouse MLg2908 cells (FIG. 7B) treated with TGF-β. After serum starvation for 24 hours, cells were treated with 10 ng/ml of TGF-β for the indicated times in serum-free DMEM. Extracts from whole cells were subjected to immunoblot analysis with anti-YY1 or anti-β-actin antibody. FIGS. 7C and 7D are graphs showing the relative fold induction of YY-1 mRNA expression, detected by quantitative PCR, in WI-38 cells (FIG. 7C) and MLg2908 cells (FIG. 7D) treated with TGF-β. FIGS. 7E and 7F are graphs relating to the YY1 promoter activity in YY1-Luc-transfected WI-38 cells (FIG. 7E) and YY1-Luc-transfected MLg2908 cells (FIG. 7F) treated with PBS or TGF-β for 24 hours. The full-length YY1 promoter-luciferase reporter (YY1-LUC) was transfected into the cells by electroporation. Relative light units (RLU) were measured with a luminometer. Fold changes result from the RLU of stimulated cells divided by the RLU of non-stimulated cells. The data are presented with standard errors derived from at least three independent experiments performed in triplicate. *p<0.05 and **p<0.01 by the Student's t-test.
(§2) FIGS. 9A and 9B are immunoblots of human WI-38 cells (FIG. 9A) and mouse MLg2908 cells (FIG. 9B) treated with TNF-α. After serum starvation for 24 hours, cells were treated with 10 ng/ml of TNF-α for the indicated times in serum-free DMEM. Extracts from whole cells were subjected to immunoblot analysis with anti-YY1 or anti-β-actin antibody. FIGS. 9C and 9D are graphs showing the relative fold induction of YY-1 mRNA expression, detected by quantitative PCR, in WI-38 cells (FIG. 9C) and MLg2908 cells (FIG. 9D) treated with TGF-β. FIGS. 9E and 9F are graphs relating to the YY1 promoter activity in YY1-Luc-transfected WI-38 cells (FIG. 9E) and YY1-Luc-transfected MLg2908 cells (FIG. 9F) treated with TNF-α for 8 hours. The full-length YY1 promoter-luciferase reporter (YY1-LUC) was transfected into the cells by electroporation. Relative light units (RLU) were measured with a luminometer. Fold changes result from the RLU of stimulated cells divided by the RLU of non-stimulated cells. The data are presented with standard errors derived from at least three independent experiments performed in triplicate. *p<0.05, **p<0.01, and ***p<0.001 by the Student's t-test.
After serum starvation for 24 hours, cells were treated with 40 μg/ml of silica for the indicated time periods in serum-free DMEM. Extracts from WI-38 (FIG. 10A) or MLg2908 (FIG. 10B) cells were immunoblotted with anti-YY1 or anti-β-actin antibodies.
FIG. 18 is an immunoblot showing YYI in WI-38 cells that were unstimulated (“Resting”) or treated with IL-1β ([…]). Immunoblots were performed on Day 1 and Day 2 using anti-YY1 and anti-GAPDH antibodies.
Total RNA from lung tissue and lung fibroblasts was extracted using TRIzol® reagent (Invitrogen). Then, 0.5-1 μg of total RNA was reverse-transcribed using oligo dT as a primer. Quantitative PCR was performed using an iQ5 Biorad device. Data were analyzed by the 2^−Δ(Δ/CT^) method and normalized to the expression of the GAPDH housekeeping gene.
(§3) Cells or lung tissues were solubilized in lysis buffer (50 mM Tris/HCl (pH 8.0), 150 mM NaCl, 0.1% SDS, 0.5% sodium deoxycholate, 0.02% Na3N, 1% Nonidet P40, 1 mM PMSF, and 2 μg/ml aprotinin). Protein concentrations were determined by a BCA assay. Protein samples (20 μg) were separated in 8-16% SDS/PAGE gels and transferred onto a nitrocellulose membrane. […]

[2] = tested on: human tumor cells; conditions: cited from earlier work
[3] = tested on: lung fibroblasts; conditions: cited from earlier work
[4] = tested on: YY1 expression; assay: YY1 immunoblot in TGF-β-stimulated WI-38 cells pre-treated with NF-κB inhibitor; type: cell-based, human; conditions: WI-38 cells pre-treated with 5 μM for one hour, then 10 ng/ml TGF-β in serum-free DMEM
Protocol: FIG. 12A is a graph of the relative fold induction of YY1 mRNA expression in WI-38 cells transfected with a wild-type YY1 promoter construct (“YY1”). FIG. 12B is a graph of the relative fold induction of YY1 mRNA expression in WI-38 cells transfected with a mutant YY1 promoter contruct that has a disrupted NF-κB binding site (“mutant YY1”). In both cases, the cells were also transiently co-transfected with a vector control (“pSG5”) or 2.5 μg of NF-κB (“p65”) plasmid by electroporation, and then treated with PBS or 10 ng/ml of TGF-β for 24 hours. Data are presented with standard errors derived from at least three independent experiments performed in triplicate. ***P<0.001 (untreated pSG5 vs. untreated p65; TGF-β-treated pSG5 vs. TGF-β-treated p65). FIG. 12C is an immunoblot of WI-38 cells pre-treated with 5 μM of Bay 11-7085 (an NF-κB inhibitor) for one hour and then treated with 10 ng/ml of TGF-β for the indicated times in serum-free DMEM. Extracts from whole cells were immunoblotted with anti-YY1 or anti-β-actin antibody.
as §3

[5] = tested on: YY1 expression; assay: YY1 expression in stimulated MLg2908 lung fibroblasts (immunoblot, quantitative PCR); type: cell-based, mouse; conditions: MLg2908 cells; for YY1 transcript levels: quantitative PCR; for YY1 expression: serum-free DMEM, 10 ng/ml cytokine or 40 μg/ml silica, immunoblot
Protocol: as §1
as §2, with “The data are presented with standard errors derived from at least three independent experiments performed in triplicate. *p<0.05, **p<0.01, and ***p<0.001 by the Student's t-test.” left out
Total RNA from lung tissue and lung fibroblasts was extracted using TRIzol® reagent (Invitrogen). […] Quantitative PCR was performed using an iQ5 Biorad device. Data were analyzed by the 2^−Δ(Δ/CT^) method and normalized to the expression of the GAPDH housekeeping gene.
Cells or lung tissues were solubilized in lysis buffer (50 mM Tris/HCl (pH 8.0), 150 mM NaCl, 0.1% SDS, 0.5% sodium deoxycholate, 0.02% Na3N, 1% Nonidet P40, 1 mM PMSF, and 2 μg/ml aprotinin). Protein concentrations were determined by a BCA assay. […]

[6] = tested on: YY1 promoter; assay: YY1 promoter-luciferase reporter (YY1-LUC) in WI-38 cells; type: cell-based, human; conditions: YY1-Luc-transfected WI-38 cells
Protocol: as §1, with “The data are presented with standard errors derived from at least three independent experiments performed in triplicate. *p<0.05 and **p<0.01 by the Student's t-test.” left out
(§4) FIGS. 9A and 9B are immunoblots of human WI-38 cells (FIG. 9A) and mouse MLg2908 cells (FIG. 9B) treated with TNF-α. […] FIGS. 9C and 9D are graphs showing the relative fold induction of YY-1 mRNA expression, detected by quantitative PCR, in WI-38 cells (FIG. 9C) and MLg2908 cells (FIG. 9D) treated with TGF-β. […] Relative light units (RLU) were measured with a luminometer. […]

[7] = tested on: YY1 promoter; assay: YY1 promoter-luciferase reporter (YY1-LUC) in MLg2908 cells; type: cell-based, mouse; conditions: YY1-Luc-transfected MLg2908 cells
Protocol: as §1, with “The data are presented with standard errors derived from at least three independent experiments performed in triplicate. *p<0.05 and **p<0.01 by the Student's t-test.” left out
as §4

[8] = tested on: YY1 expression; assay: YY1 immunoblot in MRC5 human adult fibroblasts; type: cell-based; conditions: MRC5 cells, 10 ng/ml for 8 hours
Protocol: (§5) FIG. 8A is an immunoblot of whole cell extracts from MRC5 cells treated with TGF-β for 8 hours. FIG. 8B is a graph of the relative light units of YY1-Lluc-transfected MRC5 cells treated with phosphate-buffered saline (“0”) or TGF-β (“10”) for 24 hours. The data are presented with standard errors derived from at least three independent experiments performed in triplicate. *p<0.05 by the Student's t-test.
(§6) After serum starvation for 24 hours, MRC5 cells were treated with 10 ng/ml of TGF-β for 8 hours or 24 hours in serum-free DMEM. Extracts from whole cells treated with TGF-β for 8 hours were subjected to immunoblot analysis with anti-YY1 or anti-β-actin antibody. […] MRC5 cells transfected with the full-length YY1 promoter-luciferase reporter (YY1-LUC) by electroporation were treated with PBS or TGFβ for 24 hours, and the relative light units (RLU) were measured with a luminometer.

[9] = tested on: YY1 promoter; assay: YY1 promoter-luciferase reporter (YY1-LUC) in MRC5 cells; type: cell-based, human; conditions: YY1-LUC-transfected MRC5 cells, 24 hours
Protocol: as §5, §6

[10] = tested on: B cells; conditions: cited from earlier work
[11] = tested on: YY1 expression; assay: YY1 western blot in IC-21 alveolar macrophages; type: cell-based; conditions: TNF-α 10 ng/ml or silica 20 μg/ml, two days
Protocol: FIG. 11 is a western blot of unstimulated (“resting”) IC-21 alveolar macrophages or IC-21 cells stimulated with TNF-α (10 ng/ml) or silica (20 μg/ml). After two days, the cells were harvested and YY1 expression was determined using anti-YY1 and anti-GAPDH antibodies.
In addition to the indirect effects of lung inflammation, crystalline silica can activate cells directly through distinct molecular pathways (Hornung et al., “Silica Crystals and Aluminum Salts Activate the NALP3 Inflammasome Through Phagosomal Destabilization,” Nat. Immunol. 9(8):847-56 (2008); Dostert et al., “Innate Immune Activation Through Nalp3 Inflammasome Sensing of Asbestos and Silica,” Science 320(5876):674-77 (2008), each of which is hereby incorporated by reference in its entirety). Therefore, whether silica particles directly regulate YY1 expression in fibroblasts was tested by incubating cells for up to 8 hours in vitro with a fixed concentration of silica.

[12] = serum-free DMEM, 10 ng/ml cytokine or 40 μg/ml silica, immunoblot

| Compound | YY1 transcript levels [1] | YY1 expression [1, 12] | YY1 transcript levels [5] | YY1 expression [5] | YY1 promoter activity [6] | YY1 promoter activity [7] | also measured |
| --- | --- | --- | --- | --- | --- | --- | --- |
| IL-1β: cytokine used to treat WI-38 cells |  |  |  |  |  |  | YY1 expression ([1]; Day 1 and Day 2, immunoblot): upregulated |
| [N]=O [Nitric oxide] |  |  |  |  |  |  | YY1 expression [2]: inhibit; YY1 expression [3]: inhibit |
| CC(C)(C)c1ccc(S(=O)(=O)/C=C/C#N)cc1 [Bay11-7085] |  |  |  |  |  |  | YY1 expression [4]: abolished |
| TGF-β: profibrotic cytokine used to stimulate lung fibroblasts | upregulated | upregulated | upregulated | upregulated | significantly increased | significantly increased | YY1 expression [8]: up-regulated; YY1-LUC activity [9]: up-regulated |
| Rituximab: anti-CD20 antibody used for treating B cell non-Hodgkin's lymphoma |  |  |  |  |  |  | NF-κB expression [10]: diminished; YY1 expression [10]: diminished |
| TNF-α | upregulated | increased | upregulated | increased | upregulated | upregulated | YY1 expression [11]: neither silica nor TNF-α affected; also recorded: slightly decreased |
